How the values were obtained:
Venturia inaequalis = assay: Venturia test (apples)/preventive; assay type: in vivo, Venturia inaequalis on apples; details: preventive spray, evaluated 10 days after inoculation
Experimental: Venturia Test (Apples)/Preventive [table] To produce a suitable preparation of active compound, 1 part by weight of active compound is mixed with the stated amounts of solvent and emulsifier, and the concentrate is diluted with water to the desired concentration. To test for preventive activity, young plants are sprayed with the preparation of active compound at the stated rate of application. After the spray coating has dried on, the plants are inoculated with an aqueous conidia suspension of the causal agent of apple scab (Venturia inaequalis) and then remain for 1 day in an incubation cabinet at approximately 20° C. and a relative atmospheric humidity of 100%. The plants are then placed in a greenhouse at approximately 21° C. and a relative atmospheric humidity of approximately 90%. The test is evaluated 10 days after the inoculation. 0% means an efficacy which corresponds to that of the untreated control, while an efficacy of 100% means that no disease is observed.

Alternaria solani = assay: Alternaria test (tomatoes)/preventive; assay type: in vivo, Alternaria solani on tomatoes; details: preventive spray, evaluated 3 days after inoculation
Experimental: Alternaria Test (Tomatoes)/Preventive [table] To produce a suitable preparation of active compound, 1 part by weight of active compound is mixed with the stated amounts of solvent and emulsifier, and the concentrate is diluted with water to the desired concentration. To test for preventive activity, young plants are sprayed with the preparation of active compound at the stated rate of application. After the spray coating has dried on, the plants are inoculated with an aqueous spore suspension of Alternaria solani. The plants are then placed in an incubation cabinet at approximately 20° C. and a relative atmospheric humidity of 100%. The test is evaluated 3 days after the inoculation. 0% means an efficacy which corresponds to that of the untreated control while an efficacy of 100% means that no disease is observed.

SMILES	Efficacy in % found (Venturia inaequalis; application rate 10 ppm a.i.) [%]	Efficacy in % found (Alternaria solani; application rate 10 ppm a.i.) [%]	Efficacy in % found (Venturia inaequalis; application rate 40 ppm a.i.) [%]	Efficacy in % found (Alternaria solani; application rate 40 ppm a.i.) [%]
OC(Cc1ccccc1Cl)(Cn1nc[nH]c1=S)C1(Cl)CC1 (stereo not shown) [(A) Prothioconazole, Prothioconazole]	43	50	–	–
CC(C)NC(=O)N1CC(=O)N(c2cc(Cl)cc(Cl)c2)C1=O [(B) Iprodione, Iprodione]	–	–	3	70

From patent US9198423B2, “Active compound combinations” (BAYER INTELLECTUAL PROPERTY GMBH, priority 2011, dated 2015)
